Measured values published in article PMC6576746, “Rational discovery of dual-indication multi-target PDE/Kinase inhibitor for precision anti-cancer therapy using structural systems pharmacology” (PLoS Computational Biology, 2019).
pEC50, pIC50: −log10 of the molar value.

Key:
Test in all cases: cells
Design in all cases: species or system panel of human cancer cell lines; Eurofins OncoPanel proliferation; nuclei count by high-content fluorescence imaging, 10-point dose response
HLE = settings: Homo sapiens, HLE, 72 h, cell count, 3 days
Method in brief: (§1)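 Cells in RPMI 1640/10% FBS or special medium received compound the day after seeding, with a time-zero plate; 3-day incubation at 37°C, 5% CO2. Nuclei imaged by fluorescence microscopy; 10 half-log doses from 100 μM, 0.1% DMSO. EC50, IC50, GI50 and activity area (0–10) from curve fits.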

A388 = settings: 72 h, cell count, 3 days
Method in brief: as §1

NCIH441 = settings: Homo sapiens, NCI-H441, 72 h, cell count, 3 days
Method in brief: as §1

HEC-1-A = settings: Homo sapiens, HEC-1-A, 72 h, cell count, 3 days
Method in brief: as §1

TE 125.T = settings: 72 h, cell count, 3 days
Method in brief: as §1

C-33A = settings: Homo sapiens, C-33-A, 72 h, cell count, 3 days
Method in brief: as §1

HT-3 = settings: Homo sapiens, HT-3, 72 h, cell count, 3 days
Method in brief: as §1

OE19 = settings: Homo sapiens, OE19, 72 h, cell count, 3 days
Method in brief: as §1

NCI-H520 = settings: Homo sapiens, NCI-H520, 72 h, cell count, 3 days
Method in brief: as §1

OE21 = settings: OE21, 72 h, cell count, 3 days
Method in brief: as §1

HT = settings: Homo sapiens, HT, 72 h, cell count, 3 days
Method in brief: as §1

Detroit 562 = settings: Homo sapiens, Detroit 562, 72 h, cell count, 3 days
Method in brief: as §1

ARH-77 = settings: Homo sapiens, ARH-77, 72 h, cell count, 3 days
Method in brief: as §1

A375 = settings: Homo sapiens, A-375, 72 h, cell count, 3 days
Method in brief: as §1

[1] = 50% of maximum possible response

pIC50 (NCI-H520; [1]): < 4.00 | GI50 (NCI-H520; corrected for time zero): > 100 µM | pEC50 (NCI-H520; curve inflection point): < 4.00 | pIC50 (A375; [1]): 5.02 | GI50 (A375; corrected for time zero): 9 µM | pEC50 (A375; curve inflection point): 5.02
SMILES: C[C@@H]1CC(=O)NN=C1c1ccc(NN=C(C#N)C#N)cc1 [levosimendan]
pIC50 (HLE; [1]): 4.58 | GI50 (HLE; corrected for time zero): 24.3 µM | pEC50 (HLE; curve inflection point): 4.60 | pIC50 (A388; [1]): 4.21 | GI50 (A388; corrected for time zero): 48.4 µM | pEC50 (A388; curve inflection point): 4.21 | pIC50 (NCIH441; [1]): < 4.00 | GI50 (NCIH441; corrected for time zero): 31.9 µM | pEC50 (NCIH441; curve inflection point): < 4.00 | pIC50 (HEC-1-A; [1]): 4.46 | GI50 (HEC-1-A; corrected for time zero): 28.2 µM | pEC50 (HEC-1-A; curve inflection point): 4.46 | pIC50 (TE 125.T; [1]): < 4.00 | GI50 (TE 125.T; corrected for time zero): 71.4 µM | pEC50 (TE 125.T; curve inflection point): < 4.00 | pIC50 (C-33A; [1]): 4.84 | GI50 (C-33A; corrected for time zero): 10.7 µM | pEC50 (C-33A; curve inflection point): 4.84 | pIC50 (HT-3; [1]): 4.04 | GI50 (HT-3; corrected for time zero): 48.5 µM | pEC50 (HT-3; curve inflection point): 4.04 | pIC50 (OE19; [1]): < 4.00 | GI50 (OE19; corrected for time zero): 96.8 µM | pEC50 (OE19; curve inflection point): < 4.00 | pIC50 (OE21; [1]): 4.07 | GI50 (OE21; corrected for time zero): 76 µM | pEC50 (OE21; curve inflection point): 4.07 | pIC50 (HT; [1]): 4.16 | GI50 (HT; corrected for time zero): 56.9 µM | pEC50 (HT; curve inflection point): 4.16 | pIC50 (Detroit 562; [1]): 4.29 | GI50 (Detroit 562; corrected for time zero): 28.4 µM | pEC50 (Detroit 562; curve inflection point): 4.29 | pIC50 (ARH-77; [1]): 4.69 | GI50 (ARH-77; corrected for time zero): 16 µM | pEC50 (ARH-77; curve inflection point): 4.71
